Structures can show the parent of a compound that is named as a salt. Blank lines part the entries; values can stand above or below the compound they belong to.
What was measured:
[1] = target: T1, Human Platelet PAF Receptor (Homo sapiens, UniProt P25105); test: Human Platelet PAF Receptor Assay test (Test A): inhibition of specific binding of [³H]-PAF to platelets; conditions: inhibition of specific binding of [³H]-PAF to human platelets, read-out: IC₅₀
T1 construct: from tissue; host or cells: washed human platelets from donor blood
T1 sequence (P25105 whole entry): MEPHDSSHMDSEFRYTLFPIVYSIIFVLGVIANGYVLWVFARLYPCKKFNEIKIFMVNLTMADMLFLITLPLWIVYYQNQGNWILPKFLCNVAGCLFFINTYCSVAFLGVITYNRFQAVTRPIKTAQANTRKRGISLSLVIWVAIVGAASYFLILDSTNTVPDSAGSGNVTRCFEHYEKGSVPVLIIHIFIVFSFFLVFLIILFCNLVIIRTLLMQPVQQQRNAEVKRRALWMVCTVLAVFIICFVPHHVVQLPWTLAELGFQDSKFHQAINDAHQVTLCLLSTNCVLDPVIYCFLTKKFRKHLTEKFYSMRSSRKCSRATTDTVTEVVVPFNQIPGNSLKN
Method: The compounds of formula I are indicated for use as platelet activating factor receptor antagonists as indicated by their ability to inhibit specific binding of [³H]-PAF to platelets according to the Human Platelet PAF Receptor Assay test (Test A) as follows: Human blood is obtained by venipuncture of healthy, human donors into an anti-coagulant mixture containing 3.15% of trisodium citrate and 20 µg/ml of Prostaglandin I₂ (PGI₂) in a ratio of blood to anti-coagulant of 9:1. Platelet rich plasma (PRP) is prepared by centrifugation (250 x g) of the blood for 20 minutes at room temperature. […] All of the tests are conducted in duplicate and each of the test compounds is evaluated at concentrations of 100, 50, 1 and 0.1 µM. […] An additional 2 ml of Scintiverse II is then added to the vials and, after mixing, the vials are counted for 1 minute in a liquid scintillation spectrometer. The amount of specific binding is calculated as the difference in cpm between the total bound [³H]-PAF and non-specifically bound [³H]-PAF. The percent inhibition of specific binding is determined by dividing the cpm specifically bound in the presence of the test compound by the cpm specifically bound in total, multiplying by 100 and then subtracting from 100. […]

[2] = tested on: PAF-mediated extravasation; test: PAF-induced Extravasation test (Test C), hemoconcentration (hematocrit); format: in vivo; conditions: Cavia porcellus, po, guinea pigs, PAF 100 ng/kg i.v., inhibition of increase in hematocrit, read-out: ED₅₀
Method: Still further, the compounds of formula I are indicated for use as inhibitors of PAF-mediated extravasation (the extrusion of plasma from the lumen of the blood vessels into the vessel wall and surrounding tissues) measured as a function of hemoconcentration according to the PAF-induced Extravasation test(Test C) as follows: Male guinea pigs, weighing between 300 and 400 g, are anesthetized, after which time a femoral catheter is inserted. The test compound is administered either orally or parenterally one hour up to 4 hours prior to the introduction of PAF. The PAF (C₁₈-Sandoz, Hanover) is dissolved in Tris-Tyrode's bovine serum albumin buffer and administered intravenously (jugular) at 100 ng/kg. […] The tubes are then centrifuged and the percent of packed red blood cells (hematocrit) is measured (PAF induces a maximal increase in hematocrit at 5 to 7 minutes subsequent to the injection of PAF). The percent increase in hematocrit over the value prior to the injection of PAF is calculated. The hemacrotit values obtained with the test compound are compared to the hemoconcentration values obtained with PAF alone and are expressed as percent inhibition of percent increase in hematocrit.

[3] = tested on: PAF-mediated bronchoconstriction; test: PAF-induced Pulmonary Inflation Pressure (PIP) Increase test (Test B); format: in vivo; conditions: Cavia porcellus, po, guinea pigs, PAF 100 ng/kg i.v., maximal PIP increase, read-out: ED₅₀
Method: Furthermore, in view of their potential as PAF receptor antagonists, the compounds of formula I are indicated for use as inhibitors of PAF-mediated bronch oconstriction, which property was evaluated by the PAF-induced Pulmonary Inflation Pressure (PIP) Increase test (Test B) as follows:
Male guinea pigs, weighing between 300 and 400 g, are anesthetized, after which time trachea tube, carotid and jugular cathers are inserted. The test animal is then force ventilated employing a small animal Harvard respirator and the resistance to lung inflation (PIP) is measured utilizing a pressure transducer and recorder. The test compound is administered either orally at 30 minutes up to 4 hours prior to or parenterally e.g. intravenously (jugular) etc. at 5 minutes up to 4 hours prior to the introduction of PAF. […] Any blood pressure measurements taken are recorded from a transducer attached to the carotid catheter. […] A reading at 15 minutes after the administration of PAF is termed the endpoint PIP. The effect of the test compound on the PIP response is determined by the difference between the percent increase in maximal PIP over baseline for the test animal to which has been administered PAF and the test compound compared to the test animal to which only PAF has been administered.

Abelson 8.1 tumor cells [4] = test: Influence on Cytotoxicity of ET-18-OCH₃ test (IC-ET test) (Test E); format: cell-based, mice; conditions: at 5 µg, macrophages pre-incubated with 10µg ET-18-OCH₃, values recorded after 72 hours, ET-18-OCH₃ alone set at 100%
Method: Test E) Influence on Cytotoxicity of ET-18-OCH₃ test (IC-ET test).
Bone marrow cell macrophages (10⁵/well)obtained from [BALB/CX57/BL₆]Fl mice were incubated with 10µg of 1-octadecyl-2-methoxy-3-phosphoryl choline (ET-18-OCH₃) for 24 hours in flat bottom microtiter plates (Nunc Roskieide,Denmark), after which time they are centrifuged and washed once. Abelson 8.1 tumor cells in DMEM + 10% fetal calf serum and 1,3 and 5ug of the test compound were then added to the plates. With the cytotoxicity of ET-18-OCH₃ (10ug) alone set at 100%, the inhibition or enhancement of the cytotoxic effect, as measured by an alkaline phosphatase assay, was determined and values recorded after 72 hours for 1,3 and 5ug of the test substance.

Abelson 8.1 tumor cells [5] = test: Tumor cell cytotoxicity Test (TCCT) (Test D), alkaline phosphatase readout; format: cell-based; conditions: at 5µg
Method: Test D) Tumor cell cytotoxicity Test (TCCT).
In flat bottom microtiter plates (Nunc Roskieide, Denmark) were placed Abelson 8.1 tumor cells in DMEM + 10% fetal calf serum and the tumor cell-containing plates were incubated with 1,3, and 5µg of the test compound for a period of 6 to 72 hours. The number of viable tumor cells present was determined by measuring the alkaline phosphatase in the following manner. The tumor cell plates were centrifuged (500 x g.) for ten minutes and the supernatant flicked off. Without further washing, 100 ul of buffer containing 20 ul of diethanolamine, 2uM of MgCl₂ · 6H₂O, 2.5 uM of p-nitrophenylphosphate and 10 mg Triton X-100 were added. The samples were incubated for 60 minutes at room temperature and the enzymatic reaction was terminated by the addition of 100 ul of 0.5N NaOH. The absorbance was then measured at […] using a Titertek Multiskan apparatus.

Meth A sarcoma cells = test: Meth A fibrosarcoma implant in mice (Test F): tumor growth and survivors; format: in vivo; conditions: 50µg per day p.o. for 28 days, ten CBF₁ mice implanted with 7.3 x 10⁶ Meth A sarcoma cells
Description: Test F) Meth A fibrosarcoma cells were induced in BALB/C mice by administering methylcholanthrene according to the procedure of Old, et al. (L.J. Old, E.A. Boyse, D.A. Clarke, and E. Carswell, Ann. N.Y. Acad. Sci., 101, 80 (1962). These tumor cells were harvested from the peritoneal cavity 10 to 12 days after administration of methylcholanthrene. Ten CBF₁ mice of 10-12 week age were each implanted with 7.3 x 10⁶ Meth A sarcoma cells to serve as control. A second group of ten CBF₁ mice were each implanted with 7.3 x 10⁶ Meth A sarcoma cells and on day one after implant each mouse was treated p.o. with 5-50µg of the test compound per day for a total of twenty or twenty-seven days. Tumor growth and survivors were assayed on days 7, 14, 21 and 28 after tumor implantation.

- IC50 [1]: 60 nM
SMILES: COc1cc(CCc2ccc(C3=Cc4ccccc4C4=NCCN34)cc2)cc(OC)c1OC.Cl [Example 7E, 5-[4ʹ-(3,4,5-trimethoxyphenylethyl)phenyl]-2,3-dihydroimidazo [2,1-a]isoquinoline hydrochloride]
- ED50 [2]: 4.2 mg/kg
- ED50 [3]: 5 mg/kg

SMILES: C=CCN(CC=C)Cc1ccc(C2=Cc3ccccc3C3=NCCN23)cc1 [Example 3BB, 5-(4ʹ-diallylaminomethylphena]isoquinoline dihydrochloride]
- inh. (Abelson 8.1 tumor cells [4]): 97%
- inh. (Abelson 8.1 tumor cells [5]): 99%

SMILES: C1=C(c2ccc(CN3CCCCC3)cc2)N2CCN=C2c2ccccc21.Cl.Cl [Example 3N, 5-(4ʹ-piperidinomethylphenyl)-2,3-dihydroimidazo[2,1-a]isoquinoline dihydrochloride]
- Tumor growth (Meth A sarcoma cells): no evidence of the presence of any tumors
- survivors (Meth A sarcoma cells; none of the control group survived): all of the animals
